Experimental data as given in patent US7846469B2, “Reversible inhibition of sperm receptor synthesis for contraception” (The Penn State Research Foundation, priority 2006, dated 2010).
Where “and” joins values, the source holds several entries; their conditions need not be identical. Equal entries are not always repeated.

Assays:
[1] = tested on: inner perivitelline membrane (85% ZPC protein); assay: Electron microscopy of inner perivitelline membrane of mature follicle from fed laying hens; type: in vivo, chicken; settings: 250 ppm nicarbazin treated feed
Description: FIG. 6 is an electron micrograph of a mature follicle from control (C) and nicarbazin treated (T) hens.
As a follow-up experiment, we fed a group of 6 laying hens the 250 ppm nicarbazin treated feed, in an attempt to reduce, but not eliminate, ZPC synthesis. Egg membranes were collected from laid eggs and the most mature follicle dissected from both treated and control hens. The membranes were fixed with osmium tetroxide, sectioned via microtome and viewed with electron microscopy.
This micrograph provides direct, visual confirmation of the previously presented data: that is, that oral nicarbazin dosages reduces the ZP3 content of the oocyte membrane.

[2] = tested on: chicken ZPC; assay: Western blot for chicken ZPC in isolated hen granulosa cells treated with nicarbazin; type: cell-based
Protocol: FIG. 1 is a Western blot of chicken ZPC proteins.
In a preliminary effort to support this hypothesis, we isolated granulosa cells from primary follicles of a laying hen, and suspended them in a simple cell culture media (1 ml medium (M)199-HEPES supplemented with Hank salts (Gibco-BRL) plus 1 ml Dulbecco modified Eagle medium (DMEM) containing 5% FBS). […] The cells were then disrupted with a sonicator and proteins precipitated and heat solubilized per Barbato et al. (1998). Proteins were concentrated, separated via gel electrophoresis and western blot performed with antibodies to chicken ZPC.

[3] = tested on: sperm attaching to the oocyte; assay: Sperm count on oocyte membrane of eggs from fed, inseminated ducks; type: in vivo, duck; settings: membranes of eggs from nicarbazin-treated ducks
Description: (§1) [Images were taken at 20× magnification with DAPI fluorescent stain.]
Since there appeared to be a decrease in the amount of ZPC (the primary sperm receptor) present in the duck oocyte membranes, we reasoned that the lack of fertility in any laid eggs should be due to a decline in sperm attaching to the oocyte. FIG. 5 illustrates a pair of sample membranes from both control and nicarbazin treated ducks. Consistent with previous data from our lab (e.g., Barbato et al., 1998) 228±15 sperm/mm2 of oocyte membrane were found in eggs from control ducks, whereas there were 0±15 sperm/mm2 counted on the membranes from nicarbazin-treated ducks.

[4] = tested on: broiler-breeder hens; settings: cited from earlier work
[5] = tested on: rat ZPC mRNA; assay: Quantitative rtPCR of ZPC (ZP3) mRNA copy number in rat ovarian tissue; type: in vivo
Description: (§2) In an attempt to increase nicarbazin absorption in a mammalian species we paired nicarbazin with a typical pharmaceutical carrier, 5% propylene glycol (PGC). A 500 ppm dose was fed to 8 adult, female rats for a 7-day period, at which time the rats were killed and the ovaries removed and placed in RNAlater (to preserve protein, RNA and DNA—4 control rats were also sacrificed). Ovarian proteins and mRNA were extracted via standard laboratory protocols. FIG. 7 illustrates the results of a western blot for ZPC, using a murine monoclonal antibody (which cross-reacts with rat ZPC).
Upon finding a reduction in ZPC-immunoreactive band intensity from ovarian samples obtained from treated animals, we designed PCR primers to identify mRNA for rat ZPC. By applying the quantitative rtPCR technique we were able to estimate the number of copies of the ZPC mRNA that were present in the ovarian tissue samples.

[6] = tested on: ZPC; assay: Western blot of ZPC in oocyte (perivitelline) membrane of laid eggs from fed ducks; type: in vivo, duck
Description: Drug feeding began in Week 2; making Week 1 and internal control.
A subsample of eggs were collected during each week of the experiment, in order to dissect, extract and identify the ZPC in the oocyte membrane using and anti-ZPC antibody and western blotting technique. FIG. 4 illustrates that at the 500 ppm dose of nicarbazin, ZPC was undetectable after the 1st week of treatment, and remained absent thereafter.

[7] = tested on: Pekin Ducks; assay: Dose-response feeding study in Pekin ducks: egg production and fertility; type: in vivo, duck
Description: FIG. 3 depicts the fertility of laid eggs obtained from Pekin Ducks fed varying doses of nicarbazin.
as §1
(§3) Our first study determined the dose-response relationship for the effect of nicarbazin in reducing egg production and/or hatchability in ducks.
Since all hens in this experiment were artificially inseminated with sperm from untreated drakes, the effects on subsequent fertility were considered to be due entirely to the effect of nicarbazin on the female ducks. […] Further, upon the withdrawal of nicarbazin-treated feed, even the hens receiving the highest dose of nicarbazin returned to normal egg production and fertility within 10 days.

[8] = tested on: fruit fly; assay: Nicarbazin in fruit fly media; type: in vivo; settings: ethanol carrier
Protocol: According to the invention, nicarbazin specifically influences the expression of the zona pellucida 3 gene and protein in vertebrates. It is expected that other homologs of the ZP3 gene will also be negatively affected by nicarbazine. For example, there is an insect homolog of ZP3 that is a structural component of the wing vein. Nicarbazin interferes with the expression of the insect homolog in the same manner as the vertebrate Gene.
In a quick experiment, 3-5% nicarbazin preparation was added to the media (food) in fruit fly vials using ethanol as a carrier (since fruit flies are attracted to ethanol).

[9] = tested on: FDRL rats; settings: high dose (300 mg/kg bw per day phenylurea, 100 mg/kg bw per day pyrimidone), F2a and F3a litters; cited from earlier work
[10] = tested on: mice; assay: Direct feeding experiment with mating pairs of mice; type: in vivo, mouse
Protocol: The indirect biochemical evidence in the previous section led us to attempt a direct feeding experiment with mice. In this case, mice were fed a 0.5% nicarbazin diet (containing 5% propylene glycol). In addition, 7.5% peanut butter was added to the diet to increase palatability. Ten mating pairs of mice were given access to the diet for 4-5 hrs over a […].

[11] = tested on: rat ZPC; assay: Western blot for ZPC in rat ovarian tissue after 1 week of nicarbazin feeding; type: in vivo; settings: 500 ppm with 5% propylene glycol, band at approx. 50 kDa
Description: FIG. 7 is a Western Blot (using mouse ZPC monoclonal antibody) of rat ovarian tissue after 1 week of nicarbazin feeding. [mZPC-mab 1:2000; similar results obtained with dilution of 1:5000 and 1:10000.
as §2

[12] = DNC concentrations in blood and laid eggs of ducks fed nicarbazin; type: in vivo, duck; settings: 31.25-500 ppm in feed
Description: as §3

equimolar complex of 1,3-N,N′-bis(4-nitrophenyl)urea and 4,6-dimethyl-2(1H)-pyrimidone [nicarbazin]
width of the inner perivitelline membrane (electron micrograph) [1]: reduction in width | cell viability ([2]; 100 mM nicarbazin, granulosa cells): all cells were dead | immunoreactive ZPC (western blot) ([2]; granulosa cells from primary follicles of a laying hen, lanes 4-6 (1, 10, 100 mM nicarbazin)): absence of immunoreactive ZPC | sperm on oocyte membrane [3]: 0±15 sperm/mm2 | time to return of normal hatchability and egg production after removal of nicarbazin from feed ([4]; after removal from the feed): 7 to 10 days | egg production ([4]; higher levels (ca. 700 ppm) in feed): eliminated egg production entirely | hatchability of fertile eggs ([4]; lower levels of nicarbazin (<125 ppm) in feed): significant reduction in hatchability | ZP3 mRNA copy number, mean of triplicate estimate per rat ([5]; individual rats fed nicarbazin 500 ppm for 1 week, ovarian tissue): 0.47 and 0.95 (2×) and 0.75 and 0.50 and 0.85 and 0.77 | ZP3 mRNA copy number, overall mean ([5]; rats fed nicarbazin for 1 week, ovarian tissue, control overall mean 1.00, P = 0.03): 0.71 | reduction in copy number of the ZPC gene ([5]; rats fed nicarbazin versus control): 30% | ZPC in oocyte membrane (western blot) ([6]; 250 ppm dose, over time): clear decline in the intensity of ZPC | ZPC in oocyte membrane (western blot) ([6]; 500 ppm dose, after the 1st week of treatment): undetectable | fertility of eggs ([7]; 500 ppm nicarbazin ducks, inseminated with 200 million sperm, of 5 eggs set): 20% | egg production ([7]; ducks fed 31.25-500 ppm, FIG. 2): decline in egg production | time to return to normal egg production and fertility after withdrawal ([7]; highest dose, after withdrawal of nicarbazin-treated feed): ≤ 10 days | fertility of eggs laid by treated hens ([7]; oral doses 31.25-500 ppm, hens inseminated with sperm from untreated drakes, FIG. 3): profound effect | fly phenotype ([8]; 3% nicarbazin preparation in media): deformed wings and could not fly | hatching of fruit fly eggs ([8]; 5% nicarbazin preparation in media): did not hatch | litter size [9]: slightly fewer pups | conception rate ([10]; mice, 0.5% nicarbazin diet with 5% propylene glycol and 7.5% peanut butter, ten mating pairs, non-treated 90%): 10% | pups per litter ([10]; mice, 0.5% nicarbazin diet, non-treated averaging 6 pups per litter): 0.2 pups/litter | reversibility after removal of treated feed ([10]; previously treated mice mated over the next month): conceived normal litters | teratogenic effects in pups ([10]; pups of treated mice): no sign of teratogenic effects | ZPC immunoreactive band intensity (western blot) [11]: reduction in intensity | DNC concentrations in blood and laid eggs versus fed nicarbazin dose [12]: linear dose-concentration relationship
